The source of these data is US20220127297A1, “Novel Antibacterial 3"-Derivatives Of 4,6-Disubstituted 2,5-Dideoxystreptamine Aminoglycoside Antibiotics” (AGILeBiotics B.V., priority 2018, published 2022).

For this experiment, the system named is clinical isolates of multidrug-resistant Klebsiella pneumoniae (and ATCC43816). In words: MIC determination at Fidelta, clinical isolates. Format: cell-based. An excerpt:
3.4.2 MIC Determination at Fidelta (Croatia)
Tested reference compounds. Amikacin sulfate (Cat. No. 01693, Chem-Impex), Gentamicin sulfate (Cat. No. G4918, Sigma Aldrich), Ceftazidime Pentahydrate (Cat. No. 1098130, USP), Meropenem (Cat. No. 1392454, USP), Tobramycin (Cat. No. 1667508, USP).
Microbial strains. Klebsiella pneumoniae KP-1919 (abdomen), Klebsiella pneumoniae KP-1935 (urine), Klebsiella pneumoniae KP-1936 (abscess), Klebsiella pneumoniae KP-1937 (blood), Klebsiella pneumoniae KP-1942 (urine), Klebsiella pneumoniae KP-1944 (blood), Klebsiella pneumoniae KP-2027 (tracheal aspirate), Klebsiella pneumoniae KP-2029 (urine), Klebsiella pneumoniae KP-2030 (trachea), Klebsiella pneumoniae KP-2031 (skin), Klebsiella pneumoniae KP-2032 (urine), Klebsiella pneumoniae KP-2033 (urine), Klebsiella pneumoniae KP-2034 (urine), Klebsiella pneumoniae KP-2035 (urine), Klebsiella pneumoniae KP-2036 (urine), Klebsiella pneumoniae KP-2037 (urine), Klebsiella pneumoniae ATCC 43816, Pseudomonas aeruginosa PA-1948 (wound), Pseudomonas aeruginosa PA-1949 (urine), Pseudomonas aeruginosa PA-1950 (sputum), Pseudomonas aeruginosa PA-1952 (wound), Pseudomonas aeruginosa PA-1953 (urine), Pseudomonas aeruginosa PA-1954 (sputum), Pseudomonas aeruginosa PA-1967 (blood), Pseudomonas aeruginosa ATCC27853, Acinetobacter baumannii AB-1931 (urine), Acinetobacter baumannii AB-1932 (urine), Acinetobacter baumannii AB-2017 (bronchial aspirate), Acinetobacter baumannii AB-2018 (skin), Acinetobacter baumannii AB-2019 (bronchial aspirate), Acinetobacter baumannii AB-1964 (blood), Acinetobacter baumannii AB-2025 (skin), Acinetobacter baumannii AB-2026 (skin), Acinetobacter baumannii ATCC17978, methicillin-resistant Staphylococcus aureus MRSA-1995 (liquor), methicillin-resistant Staphylococcus aureus MRSA-1998 (wound), methicillin-resistant Staphylococcus aureus MRSA-1999 (skin), methicillin-resistant Staphylococcus aureus MRSA-2003 (wound), vancomycin-resistant Enterococcus faecium VRE-2005 (urine), vancomycin-resistant Enterococcus faecium VRE-2006 (urine), vancomycin-resistant Enterococcus faecium VRE-2007 (urine), vancomycin-resistant Enterococcus faecium VRE-2008 (urine), vancomycin-resistant Enterococcus faecium VRE-2009 (urine), vancomycin-resistant Enterococcus faecium VRE-2010 (urine), vancomycin-resistant Enterococcus faecium VRE-2011 (rectum), vancomycin-resistant Enterococcus faecium VRE-2012 (rectum), vancomycin-resistant Enterococcus faecium VRE-2013 (rectum).
Culture media and equipment. BBL™ Mueller Hinton Broth (REF 275730, Lot. 7009699, Becton Dickinson); Mueller Hinton Agar 2 (Ref. No. 97580-500G-F, Lot. No. BCBV4646, Sigma); Cellstar, 96-well plates, U-bottom (Cat. No. 650180, Lot. No. E14123EB, Greiner Bio-one); 96-well deep well plate, 1 mL (Cat. No. 278606, Nunc); Incubator (Binder); Laminar flow (Thermo Scientific); BioPhotometer (Eppendorf); DEN-1B (McFarland Densitometer, Biosan); McFarland standards (polymer microparticle suspension, Biosan).
Compound preparation. For testing, 5 mg/mL DMSO solutions of the test compounds and reference antibiotics were used. Out of these DMSO solutions, 43.5 μL was transferred to 1656.5 μL of MH media in a deep well plate. Out of these working solutions 100 μL was transferred to wells in the third column of 96-well plates. Plates are previously filled with 50 μL of MH media in all wells except for the wells in the third column. After compound and antibiotic addition, 50 μL was transferred from the third to the fourth column, then from the fourth to the fifth and so on. In this manner, the compounds and antibiotics were plated in 96-well plate in serial two-fold dilutions giving a final concentration range of 64-0.125 μg/mL.
Inoculum preparation. Designations used for clinical isolates were from Fidelta strain collection bank. Microorganisms used were all revived from skim milk storage at −70° C. by plating them on MH agar plates.

Where [1] appears, read: Klebsiella pneumoniae, ATCC43816, KP-1919, Abdomen/VIM, ESBL, read-out: MIC 90.
The mark [2] stands for this setting: Klebsiella pneumoniae, ATCC43816, KP-1935, Urine/ESBL, NDM, read-out: MIC 90.
Where [3] appears, read: Klebsiella pneumoniae, ATCC43816, KP-1936, Abscess/NDM, read-out: MIC 90.
The mark [4] stands for this setting: Klebsiella pneumoniae, ATCC43816, KP-1937, Blood/VIM, ESBL, read-out: MIC 90.
[5] abbreviates: Klebsiella pneumoniae, ATCC43816, KP-1942, Urine (catheter)/VIM, read-out: MIC 90.
The mark [6] stands for this setting: Klebsiella pneumoniae, ATCC43816, KP-1944, Blood/NDM, read-out: MIC 90.
Setting [7] is: Klebsiella pneumoniae, ATCC43816, KP-2027, Tracheal aspirate/ESBL, OXA-48, ColR, read-out: MIC 90.
[8] abbreviates: Klebsiella pneumoniae, ATCC43816, KP-2029, Urine/ESBL, OXA-48, read-out: MIC 90.
Where [9] appears, read: Klebsiella pneumoniae, ATCC43816, KP-2030, Trachea/ESBL, OXA-48, read-out: MIC 90.
Where [10] appears, read: Klebsiella pneumoniae, ATCC43816, KP-2031, Skin/ESBL, OXA-48, read-out: MIC 90.
Where [11] appears, read: Klebsiella pneumoniae, ATCC43816, KP-2032, Urine/ESBL, OXA-48, read-out: MIC 90.
The mark [12] stands for this setting: Klebsiella pneumoniae, ATCC43816, KP-2033, Urine/OXA-A8, read-out: MIC 90.
Where [13] appears, read: Klebsiella pneumoniae, ATCC43816, KP-2034, Urine/ESBL, OXA-48, read-out: MIC 90.
The mark [14] stands for this setting: Klebsiella pneumoniae, ATCC43816, KP-2035, Urine/ESBL, OXA-48, read-out: MIC 90.
Setting [15] is: Klebsiella pneumoniae, ATCC43816, KP-2036, Urine/ESBL, read-out: MIC 90.
The mark [16] stands for this setting: Klebsiella pneumoniae, ATCC43816, KP-2037, Urine/ESBL, OXA-48, read-out: MIC 90.

Each structure is given as a SMILES string. ≈ marks a conversion by molar mass, not a printed value. Read-outs that look alike come from different tables or passages of the source.

`N=C(NC[C@@H]1CCCN1)NC1[C@@H](O)C(OC2[C@@H](F)[C@H](O[C@H]3OC(CN)[C@@H](O)CC3N)C(N)C[C@H]2NC(=O)[C@@H](O)CCN)O[C@H](CO)[C@H]1O` (stereo partly drawn) [ABX5026, Tobra-AHB-F-Gua (S) pyrrolidine-2-yl-methyl]: the “MIC90” value reads like this: (K. pneumoniae ATCC43816 strain) 1 µg/mL (≈ 1.44 µM); under setting [1], 1 µg/mL (≈ 1.44 µM); under setting [2], 1 µg/mL (≈ 1.44 µM); under setting [3], 1 µg/mL (≈ 1.44 µM); under setting [4], 2 µg/mL (≈ 2.87 µM); under setting [5], 1 µg/mL (≈ 1.44 µM). Moreover, the MIC90 under setting [6] came to 2 µg/mL (≈ 2.87 µM); the MIC90 under setting [7] was 1 µg/mL (≈ 1.44 µM); the MIC90 under setting [8] came to 0.5 µg/mL (≈ 0.719 µM); the MIC90 under setting [9] is 1 µg/mL (≈ 1.44 µM); the MIC90 under setting [10] amounted to 0.5 µg/mL (≈ 0.719 µM); the MIC90 under setting [11] was found to be 0.5 µg/mL (≈ 0.719 µM). Moreover, the MIC90 is, setting by setting: under setting [12], 0.5 µg/mL (≈ 0.719 µM); under setting [13], 1 µg/mL (≈ 1.44 µM); under setting [14], 0.5 µg/mL (≈ 0.719 µM); under setting [15], 0.5 µg/mL (≈ 0.719 µM); under setting [16], 0.5 µg/mL (≈ 0.719 µM).

In the case of `N=C(NC[C@@H]1CCNC1)NC1[C@@H](O)C(OC2[C@@H](F)[C@H](O[C@H]3OC(CN)[C@@H](O)CC3N)C(N)C[C@H]2NC(=O)[C@@H](O)CCN)O[C@H](CO)[C@H]1O` (stereo partly drawn) [ABX5039, Tobra-AHB-F-Gua (R) pyrrolidine-3-ylmethyl], the “MIC90” value (K. pneumoniae ATCC43816 strain) stood at 1 µg/mL (≈ 1.44 µM); the MIC90 under setting [1] stood at 1 µg/mL (≈ 1.44 µM); the MIC90 under setting [2] is 2 µg/mL (≈ 2.87 µM); the MIC90 under setting [3] worked out at 1 µg/mL (≈ 1.44 µM); the MIC90 under setting [4] was determined as 2 µg/mL (≈ 2.87 µM); the MIC90 under setting [5] was 1 µg/mL (≈ 1.44 µM). The MIC90 reads like this: under setting [6], 2 µg/mL (≈ 2.87 µM); under setting [7], 1 µg/mL (≈ 1.44 µM); under setting [8], 0.5 µg/mL (≈ 0.719 µM); under setting [9], 1 µg/mL (≈ 1.44 µM); under setting [10], 0.5 µg/mL (≈ 0.719 µM); under setting [11], 0.5 µg/mL (≈ 0.719 µM). The MIC90 under setting [12] came to 0.5 µg/mL (≈ 0.719 µM); the MIC90 under setting [13] was found to be 1 µg/mL (≈ 1.44 µM); the MIC90 under setting [14] came to 1 µg/mL (≈ 1.44 µM); the MIC90 under setting [15] worked out at 1 µg/mL (≈ 1.44 µM); the MIC90 under setting [16] turned out to be 0.5 µg/mL (≈ 0.719 µM).

For the compound `NCC[C@H](O)C(=O)N[C@@H]1C[C@H](N)[C@@H](O[C@H]2O[C@H](CN)[C@@H](O)[C@H](O)[C@H]2O)[C@H](O)[C@H]1O[C@H]1O[C@H](CO)[C@@H](O)[C@H](N)[C@H]1O` [Amikacin, amikacin, reference compound], the MIC90 is, setting by setting: (Klebsiella pneumoniae, ATCC43816) 0.5 µg/mL (≈ 0.854 µM); (Klebsiella pneumoniae, ATCC43816, KP-1919, Abdomen/VIM, ESBL) 8 µg/mL (≈ 13.7 µM); (Klebsiella pneumoniae, ATCC43816, KP-1935, Urine/ESBL, NDM) 8 µg/mL (≈ 13.7 µM); (Klebsiella pneumoniae, ATCC43816, KP-1936, Abscess/NDM) 4 µg/mL (≈ 6.83 µM); (Klebsiella pneumoniae, ATCC43816, KP-1937, Blood/VIM, ESBL) 32 µg/mL (≈ 54.6 µM); (Klebsiella pneumoniae, ATCC43816, KP-1942, Urine (catheter)/VIM) 2 µg/mL (≈ 3.42 µM). Further, the MIC90 reads like this: (Klebsiella pneumoniae, ATCC43816, KP-1944, Blood/NDM) 8 µg/mL (≈ 13.7 µM); (Klebsiella pneumoniae, ATCC43816, KP-2027, Tracheal aspirate/ESBL, OXA-48, ColR) 4 µg/mL (≈ 6.83 µM); (Klebsiella pneumoniae, ATCC43816, KP-2029, Urine/ESBL, OXA-48) 8 µg/mL (≈ 13.7 µM); (Klebsiella pneumoniae, ATCC43816, KP-2030, Trachea/ESBL, OXA-48) 16 µg/mL (≈ 27.3 µM); (Klebsiella pneumoniae, ATCC43816, KP-2031, Skin/ESBL, OXA-48) 8 µg/mL (≈ 13.7 µM); (Klebsiella pneumoniae, ATCC43816, KP-2032, Urine/ESBL, OXA-48) 4 µg/mL (≈ 6.83 µM). Moreover, the MIC90 runs as follows: (Klebsiella pneumoniae, ATCC43816, KP-2033, Urine/OXA-A8) 2 µg/mL (≈ 3.42 µM); (Klebsiella pneumoniae, ATCC43816, KP-2034, Urine/ESBL, OXA-48) 16 µg/mL (≈ 27.3 µM); (Klebsiella pneumoniae, ATCC43816, KP-2035, Urine/ESBL, OXA-48) 8 µg/mL (≈ 13.7 µM); (Klebsiella pneumoniae, ATCC43816, KP-2036, Urine/ESBL) 8 µg/mL (≈ 13.7 µM); (Klebsiella pneumoniae, ATCC43816, KP-2037, Urine/ESBL, OXA-48) 4 µg/mL (≈ 6.83 µM).
